Measured values taken from patent US20250248965A1, “HEXAHYDRONAPHTHALEN-2-ONE DERIVATIVES FOR USE AGAINST A CORONAVIRUS INFECTION” (TÁMOGATOTT KUTATÓCSOPORTOK IRODÁJA, priority 2021, published 2025).

Columns and labels:
Format in all cases: cell-based
[1] = Alamar Blue cell viability (cytotoxicity) assay; details: African green monkey, Vero E6 host cells
Experimental: (§1) Compounds to be tested were dissolved in DMSO at 20 mM concentration and stored at −20° C. Stock solutions were diluted with DMEM medium to result 100 μM concentration. The DMSO content was 0.5% in the highest concentration containing wells.
(§2) In vitro cytotoxicity testing of the compounds was performed by the Alamar Blue cell viability assay. Briefly, Vero E6 cells were plated in a 96-well flat bottom tissue culture plates in 10% FBS containing DMEM media (5000 cells/100 μL) one day prior to experiment. Before the test, 50 μL supernatant was removed and replaced with 50 μL DMEM serum free (SFM) medium. […] Two days after, 20 μL Alamar Blue (resazurin sodium salt, Merck) solution (0.15 mg/mL in PBS, filtered […] Merck) was added to each well and after 3-3.5 hrs of incubation the fluorescence was measured at λEx=530/30 and at λEM=610/10 nm using a Synergy H4 multi-mode microplate reader (BioTek). All measurements were performed in quadruplets and the mean IC50 values together with SEM were represented on the graphs.

Vero E6 cells = test: Alamar Blue cell viability (cytotoxicity) assay; details: 48 hrs
Experimental: as §1, §2

SARS-CoV-2 [2] = details: SARS-CoV-2 infected Vero E6 cells, 48 hours of incubation
SARS-CoV-2 [3] = test: Viral copy number by RT-qPCR from supernatant; details: supernatant of infected Vero E6 cells

SMILES: CCN(CC)CCCC(C)Nc1ccnc2cc(Cl)ccc12 (stereo not drawn) [Chloroquine]
- IC50 at 48 h [1]: 34 µM

SMILES: CC(=O)Oc1ccccc1C(=O)Nc1ncc([N+](=O)[O-])s1 [Nitazoxanide]
- toxicity on the host cells (Vero E6 cells; range up to 100 μM): around 35%

SMILES: CC(C)=C1C[C@@]2(C)C(=CC1=O)CC[C@@H](O)[C@@H]2C [isopetasol, (4aR,5R,6R)-6-hydroxy-4a,5-dimethyl-3-propan-2-ylidene-5,6,7,8-tetrahydro-4H-naphthalen-2-one]
- antiviral effect (virus-induced CPE, TCID50/mL) (SARS-CoV-2 [2]): markedly different than petasol

SMILES: C=C(C)[C@@H]1C[C@@]2(C)C(=CC1=O)CC[C@@H](O)[C@@H]2C [Petasol, (3S,4aR,5R,6R)-6-hydroxy-4a,5-dimethyl-3-prop-1-en-2-yl-3,4,5,6,7,8-hexahydronaphthalen-2-one]
- viral RNA copy numbers (antiviral effect) (SARS-CoV-2 [3]): high similarity with the TCID50 values
- in vitro cytotoxicity (not cytotoxic up to) (Vero E6 cells; Vero E6 host cells): > 100 µM

SMILES: C=C(C)[C@H]1C[C@@]2(C)C(=CC1=O)CC[C@@H](O)[C@@H]2C [neopetasol, (3R,4aR,5R,6R)-6-hydroxy-4a,5-dimethyl-3-prop-1-en-2-yl-3,4,5,6,7,8-hexahydronaphthalen-2-one]
- antiviral effect (virus-induced CPE, TCID50/mL) (SARS-CoV-2 [2]): markedly different than petasol
